Experimental data reported in patent US5614533A, “Substituted pipecolinic acid derivatives as HIV protease inhibitors” (Bio-Mega/Boehringer Ingelheim Research, Inc., priority 1994, dated 1997).

How the values were obtained:
[1] = biological target: T1, HIV protease (Human immunodeficiency virus type 1 group M subtype B, UniProt P04585); assay: Recombinant HIV Protease HPLC Assay; format: biochemical; details: 37°, 30 min, pH 5.5
T1 construct: HIV protease was expressed in E. coli; made in house; host or cells: E. coli (plasmid pBRT1 prt+)
Description: The procedure is based on the capacity of the test compound to inhibit enzymatic cleavage by HIV protease of a decapeptide (the substrate) having an amino acid sequence which includes a known HIV protease cleavage site of a HIV polyprotein; see H. G. Krausslich et al., Proc. Natl. Acad. Sci. USA, 86, 807 (1989). Details of this assay together with the results obtained for exemplified compounds of formula 1 are described in the examples hereinafter.
Recombinant HIV Protease HPLC Assay:
Enzyme: HIV protease was expressed in E. coli {construct pBRT1 prt^+, see W. G. Farmerie et al., Science, 236, 305 (1987)}, according to the following protocol:
E. coli cells containing the pBRT1 prt^+ plasmid were used to inoculate a seed culture media composed of Luria-Bertani Broth containing 100 μg/mL of ampicillin. Flasks were incubated at 37° under agitation for 17 h. Production flasks containing sterile M9 broth, supplemented with 100 μg/mL of ampicillin, were inoculated at a level of 1% (v/v) using the seed culture described above. Total volume in each production flask was 500 mL in a 2 L Erlenmeyer flask. Flasks were incubated at 37° under agitation until a cell concentration corresponding to an optical density ([…]) of 0.6 was reached (no dilution). This time span was routinely 3-4 h. Flasks were then supplemented with 5 mM isopropylthiogalactoside (IPTG, Research Organics, Cleveland, Ohio, USA) and incubation was continued until the cell concentration reached an optical density of 0.2 at 16-fold dilution. Flasks were then supplemented with 1 mM phenylmethylsulfonyl fluoride (PMSF) and rapidly chilled to 4°. The bacterial cells were recovered by centrifugation at 4°. The wet pellet was stored at -70°.
All steps below were performed at 4° unless otherwise indicated. Thawed cells were mixed with buffer A {50 mM tris(hydroxymethyl)[…] HCl (Tris-HCl, pH 7.4); 0.6 mM ethylenediaminetetraacetic acid (EDTA); 0.375M NaCl, 0.2% Nonidet P-40® (BDH Chemicals Ltd., Poole, UK); 1 mM PMSF}, at a ratio of one part cells to nine parts buffer A. Diatomaceous earth (Celite 545®, John Manville, Lompoc, Calif. USA) was added at a ratio of two parts to one part of wet cell weight. The resulting slurry was homogenized at high speed (ca. 20,000 rpm) on a Waring® industrial blender for 8×15 sec. pulses. Cell debris/Celite® was collected by centrifugation and the resulting pellet was extracted with 4.5 parts of buffer A to one part wet solids using the homogenization procedure described above. Supernatants from both homogenization steps were combined and soluble protein was precipitated by the addition of solid (NH4)2 SO4 to yield a final concentration of 75% saturation. This mixture was agitated for 60 min and the precipitate was recovered by centrifugation. The resulting pellet was suspended in buffer B {50 mM Tris-HCl, pH 8; 30 mM NaCl; 1 mM DL-dithiothreitol (DTT); 1 mM EDTA; 1 mM PMSF; 10% glycerol}, and dialyzed for 18 h against the same buffer.
An aliquot of the dialyzed extract containing 150 mg of the protein was loaded onto a Sephadex A25® anion exchange column (Pharmacia, Uppsala, Sweden) with bed dimensions of 70 cm length and 2.5 cm diameter. The sample was eluted isocratically with buffer B at a linear flow rate of 10 cm/h. Fractions containing HIV protease activity (see below for assay description) were combined, and soluble protein was precipitated by the addition of saturated aqueous (NH4)2 SO4 to yield a total (NH4)2 SO4 concentration of 85% saturation. Precipitated protein was removed by centrifugation and the resulting pellet was dissolved in buffer C {50 mM 2-(4-morpholino)ethanesulfonic acid (MES), pH 5.5; 150 mM NaCl; 1 mM DTT; 1 mM EDTA; 10% glycerol}. This preparation was dialyzed for 18 h against buffer C, and then frozen at -70°. All crude extracts were purified by chromatography in aliquots containing 150 mg of protein in the same manner as described above. […]

[2] = tested on: HIV (H9/HTLV-IIIB) in C8166 cells; assay: plaque assay: inhibition of syncytia formation in HIV-infected C8166 cells; format: cell-based; details: Human immunodeficiency virus 1, IIIB, Table IV, 72 h, 50% inhibition of syncytia formation
Description: Typical of such procedures are those described by S. Harada and N. Yamamoto, Jpn. J. Cancer Res. (Gann), 76, 432 (1985), and S. Harada et al., Science, 229, 563 (1985). An assay based on the latter procedures is described in the examples hereinafter.
The following protocol, used for screening antiviral effects of the compounds of formula 1, is adapted from a plaque assay utilizing HTLV-I transformed cells, previously reported by Harada et al., supra. HTLV-I transformed cells are used because of the rapidity with which HIV will replicate in the cells.
1. The test compound is dissolved in dimethylsulfoxide to a concentration of 5 mg/mL. The resultant solution can be stored at 4° until use.
2. The resultant solution is diluted in RPMI 1640 (Gibco Laboratories, St. Lawrence, Mass., USA) to four times (4×) the final concentration which is to be tested. Once diluted in RPMI 1640, the solution is used in the cell culture assay within 4 h.
3. The 4× solution (50 μL) is added to triplicate wells of a 96 well flat bottomed microtiter plate. RPMI (50 μL) also is added to control wells.
4. C8166 cells (5×10^4) in 50 μL of HEPES-buffered RPMI 1640 (pH=7.2), 10% heat inactivated fetal calf serum (FCS), […] gentamicin (complete media) are added to all wells.
5. Fifty times TCID50 of H9/HTLV-IIIB stock (stored in liquid nitrogen as cell culture supernatant in 50% FCS) in 100 μL of complete media is added to all wells. Infectious titer of virus stocks are as previously determined by end point dilution on C8166 cells. Titer of stocks are stable for 6-12 months when stored at -193°.
6. Microtiter plates are then placed on level shelves of a 37°, 5% CO2 humidified incubator for 72 h.
7. Plates are then removed and centers of syncytia are counted in each well by low power phase contrast light microscopy. […] Control wells should have between 25 and 75 centers of syncytia per well.
8. Percent inhibition of syncytia formation is calculated by the formula: [formula]
The concentration of the test compound which causes a 50% inhibition of syncytia formation, i.e. the EC50, is determined by using the technique of serial dilution of the working solution at step 3 and by using non-linear regression analysis (SAS® program) to graphically plot the observed percent inhibition of syncytia formation against the various concentrations of the test compound.

| IC50 ([1]; Table IV) [nM] | EC50 [2] [nM] | IC50 ([1]; Table VII) [nM] | SMILES |
| --- | --- | --- | --- |
| 400 | – | – | CC(C)(C)NC(=O)[C@@H]1C[C@H](c2ccccc2)CCN1C[C@@H](O)[C@H](Cc1ccccc1)NC(=O)OCc1ccccc1 [Table IV, entry 2, N-tert-butyl-1-{3(S)-(benzyloxycarbonylamino)-2(R)-hydroxy-4-phenylbutyl}-4(R)-phenylpiperidine-2(S)-carboxamide] |
| 460 | – | – | CC(C)(C)NC(=O)[C@@H]1C[C@H](Cc2ccccc2)CCN1C[C@@H](O)[C@H](Cc1ccccc1)NC(=O)OCc1ccccc1 [Table IV, entry 3, N-tert-butyl-1-{3(S)-(benzyloxycarbonylamino)-2(R)-hydroxy-4-phenylbutyl}-4(R)-benzylpiperidine-2(S)-carboxamide] |
| 30 | 1400 | – | CC(C)(C)NC(=O)[C@@H]1C[C@H](S(=O)(=O)c2ccccc2)CCN1C[C@@H](O)[C@H](Cc1ccccc1)NC(=O)OCc1ccccc1 [Table IV, entry 4, N-tert-butyl-1-{3(S)-(benzyloxycarbonylamino)-2(R)-hydroxy-4-phenylbutyl}-4(R)-(phenylsulfonyl)piperidine-2(S)-carboxamide] |
| – | 800 | – | CC(C)(C)NC(=O)[C@@H]1C[C@H](Sc2ccccc2)CCN1C[C@@H](O)[C@H](Cc1ccccc1)NC(=O)OCc1ccccc1 [Table IV, entry 5, N-tert-butyl-1-{3(S)-(benzyloxycarbonylamino)-2(R)-hydroxy-4-phenylbutyl}-4(R)-(phenylthio)piperidine-2(S)-carboxamide] |
| 53 | – | – | CC(C)(C)NC(=O)[C@@H]1C[C@H](Oc2ccccc2)CCN1C[C@@H](O)[C@H](Cc1ccccc1)NC(=O)OCc1ccccc1 [Table IV, entry 6, N-tert-butyl-1-{3(S)-(benzyloxycarbonylamino)-2(R)-hydroxy-4-phenylbutyl}-4(R)-phenoxypiperidine-2(S)-carboxamide] |
| 3.9 | 13 | – | CC(C)[C@H](NC(=O)OCc1ccccc1)C(=O)N[C@@H](Cc1ccccc1)[C@H](O)CN1CC[C@@H](Sc2ccccc2)C[C@H]1C(=O)NC(C)(C)C [Table IV, entry 8] |
| 4 | 43 | – | CC(C)(C)NC(=O)[C@@H]1C[C@H](Sc2ccccc2)CCN1C[C@@H](O)[C@H](Cc1ccccc1)NC(=O)[C@H](CC(N)=O)NC(=O)OCc1ccccc1 [Table IV, entry 9, N-tert-butyl-1-{3(S)-{{N-(benzyloxycarbonyl)asparaginyl}amino}-2(R)-hydroxy-4-phenylbutyl}-4(R)-(phenylthio)piperidine-2(S)-carboxamide] |
| 3.1 | 90 | – | CC(C)[C@H](NC(=O)OCc1ccccc1)C(=O)N[C@@H](Cc1ccccc1)[C@H](O)CN1CC[C@@H](c2ccccc2)C[C@H]1C(=O)NC(C)(C)C [Table IV, entry 10, N-tert-butyl-1-{3(S)-{{N-(benzyloxycarbonyl)valyl}amino}-2(R)-hydroxy-4-phenylbutyl}-4(R)-phenylpiperidine-2(S)-carboxamide] |
| 3.7 | 700 | – | CC[C@H](C)[C@H](NC(=O)OCc1ccccc1)C(=O)N[C@@H](Cc1ccccc1)[C@H](O)CN1CC[C@@H](c2ccccc2)C[C@H]1C(=O)NC(C)(C)C [Table IV, entry 11, N-tert-butyl-1-{3(S)-{{N-(benzyloxycarbonyl)isoleucyl}amino}-2(R)-hydroxy-4-phenylbutyl}-4(R)-phenylpiperidine-2(S)-carboxamide] |

Continued, compound first:

| SMILES | IC50 ([1]; Table IV) [nM] | EC50 [2] [nM] | IC50 ([1]; Table VII) [nM] |
| --- | --- | --- | --- |
| CC(C)(C)NC(=O)[C@@H]1C[C@H](Sc2ccccc2)CCN1C[C@@H](O)[C@H](Cc1ccc(F)cc1)NC(=O)OCc1ccccc1 [Table IV, entry 1, N-tert-butyl-1-{3(S)-(benzyloxycarbonylamino)-2(R)-hydroxy-4-(4-fluorophenyl)butyl}-4(R)-(phenylthio)piperidine-2(S)-carboxamide] | 9.5 | – | – |
| CC(C)(C)NC(=O)[C@@H]1C[C@H](C2CCCCC2)CCN1C[C@@H](O)[C@H](Cc1ccccc1)NC(=O)OCc1ccccc1 [Table IV, entry 7, N-tert-butyl-1-{3(S)-(benzyloxycarbonylamino)-2(R)-hydroxy-4-phenylbutyl}-4(R)-cylohexylpiperidine-2(S)-carboxamide] | 2100 | – | – |
| CC(C)[C@H](NC(=O)OCc1ccccc1)C(=O)N[C@@H](Cc1ccccc1)[C@H](O)CN1CC[C@@H](Sc2ccccn2)C[C@H]1C(=O)NC(C)(C)C [Table IV, entry 33, N-tert-butyl-1-{3(S)-{{N-(benzyloxycarbonyl)valyl}amino}-2(R)-hydroxy-4-phenylbutyl}-4(R)-(2-pyridinylthio)piperidine-2(S)-carboxamide] | 3.2 | – | – |
| CC(C)[C@H](NC(=O)OCc1ccccc1)C(=O)N[C@@H](Cc1ccccc1)[C@H](O)CN1CC[C@@H](Sc2ccncc2)C[C@H]1C(=O)NC(C)(C)C [Table IV, entry 34, N-tert-butyl-1-{3(S)-{{N-(benzyloxycarbonyl)valyl}amino}-2(R)-hydroxy-4-phenylbutyl}-4(R)-(4-pyridinylthio)piperidine-2(S)-carboxamide] | 2.5 | – | – |
| CC(C)(C)NC(=O)[C@@H]1C[C@H](Sc2ccncc2)CCN1C[C@@H](O)[C@H](Cc1ccccc1)NC(=O)COc1ccccc1 [Table VII, entry 3, N-tert-butyl-1-{3(S)-{{phenoxyacetyl}amino}-2(R)-hydroxy-4-phenylbutyl}-4(R)-(4-pyridinylthio)piperidine-2(S)-carboxamide] | – | – | 34 |
| Cc1ccc(F)cc1C(=O)N[C@@H](Cc1ccccc1)[C@H](O)CN1CC[C@@H](Sc2ccncc2)C[C@H]1C(=O)NC(C)(C)C [Table VII, entry 9, N-tert-butyl-1-{3(S)-{{(5-fluoro-2-methylphenyl)carbonyl}amino}-2(R)-hydroxy-4-phenylbutyl}-4(R)-(4-pyridinylthio)piperidine-2(S)-carboxamide] | – | – | 6.8 |
